The results in this text go back to publication PMC9268013, “Design, Synthesis, and Biological Evaluation of N14-Amino Acid-Substituted Tetrandrine Derivatives as Potential Antitumor Agents against Human Colorectal Cancer” (Molecules, 2022).

Test [1] concerns human breast cancer cells (MCF-7). Kind of test: MTT antiproliferative assay, MCF-7. Type of test: cell-based. As for the experimental part:
Human lung cancer cell (A549,), human umbilical vein endothelial cells (HUVECs,), human colon cancer cell lines (HCT-15), human breast cancer cells (MCF-7), human liver cancer cells (HepG2), human pancreatic cancer cells (BxPC-3), and human hepatic cell line (L-02) were obtained from the Sichuan University. A549, HUVECs, and L-02 were cultured in DMEM medium (high glucose, HyClone, GE Healthcare, Sydney, Australia). Human colon cancer cell lines HCT-15, human pancreatic cancer cells […] BxPC-3 were cultured in RPMI-1640. Human breast cancer cells MCF-7 and human liver cancer cells HepG2 were cultured in MEM medium. All the mediums, including 10% fetal bovine serum (FBS, HyClone, GE Healthcare, Sydney, Australia) and 1% ampicillin/streptomycin, were used to culture the above cells at 37 °C in a humidified atmosphere (5% CO2 and 95% air).
The antiproliferative activity of the title compounds was determined using the MTT (3-(4,5-dimethylthiazol-2-yl)-2,5-diphenyltetrazolium bromide, Sigma-Aldrich, Saint Louis, MO, USA) assay on different cells. Cells lines were seeded into 96-well plates at a density of 2000 to 6000 cells/well. DMSO was used to dissolve the test compounds, and TET was used as a positive control. After 24 h, the test compounds were added at different concentrations (0.625, 1.25, 2.5, 5, 10, and 20 μM) and incubated at 37 °C for 72 h. MTT was added to each well at a final concentration of 0.5 mg/mL and incubated at 37 °C for 4 h. Then, 150 μL of DMSO was added to each well to dissolve the formazan crystals. The absorbance was measured at 570 nm by a microplate reader (ELX800UV, Bio-Tek, Windoski, VT, USA). All measurements were repeated at least three times under the same conditions. Graphpad Prism 8.0 was used to calculate the IC50 values.

Another test has as its system HCT-15 cells. Kind of test: Flow cytometry Annexin V-FITC/PI apoptosis analysis. Type of test: cell-based, human. Conditions: 48 h. The protocol: HCT-15 cells were cultured in complete medium in six-well plates for 24 h, and […]. 2.5, 5 μM of 16 was added in triplicate for 48 h incubation. The cells were digested with trypsin without EDTA, washed twice with cold PBS, and resuspended in 500 μL binding buffer. The cell suspension was stained successively with 5 μL Annexin V-FITC and 5 μL PI (Keygen Biotech, Nanjing, China), and cultured for 15 min and 5 min in total dark, respectively. Afterwards, the percentages of apoptotic cells were determined by a flow cytometry. Data were analyzed by FlowJo software (Version 10, FlowJo, LLC, Ashland, OR, USA).
For orientation: A flow cytometer gives signals particle by particle.

Bounds are passed on as bounds.

One may read the IC50 as the midpoint of a concentration-inhibition curve. A higher IC50 goes with weaker potency in that assay. Turning to `COc1cc(NC(=O)[C@@H]2CCCN2)c2cc1Oc1ccc(cc1)C[C@H]1c3cc(c(OC)cc3CCN1C)Oc1c(OC)c(OC)cc3c1[C@H](C2)N(C)CC3` [Compound 16, 14-N-(L-proline)-tetrandrine], the IC50 in test [1] (72 h) is 1.46 ± 0.13 µM; in test [1] (Homo sapiens, MCF7, 72 h), < 1.5 µM. Besides, the Apoptotic rate in the test with HCT-15 cells (HCT-15, 2.5 μM) was found to be 25.4%; in the test on HCT-15 cells (HCT-15, 5 μM), 52.7%. The Necrotic rate in the test with HCT-15 cells (HCT-15, 5 μM) was determined as 35.5%.
